Columns and labels:
[1] = system: lymphoblasts from children afflicted with acute lymphoblastic leukemia (ALL); assay: DNA fragmentation apoptosis assay in primary lymphoblasts from children with acute lymphoblastic leukemia (ALL); assay type: cell-based, human; settings: 25 μM, 36 h
Protocol: In this experiment, lymphoblasts from children afflicted with acute lymphoblastic leukemia (ALL) were isolated and, after dilution with cell culture medium, treated for 36 h with 25 μM N76, 25 μM N69 or with 9 μM epirubicin (E) as a positive control. Controls contained corresponding amounts of the solubilizer ethanol. After the treatment, the fragmentation of the DNA was measured by staining with propidium iodide followed by quantification by flow cytometry as described by Essmann et al. (2000). The values are stated as % of apoptotic cells based on the total population±SD (n=3).
Thus, with N76 and N69, two substances of general structural formula 2 are provided as effective agents against certain tumor cells, especially those of childhood ALL, but also against other malignant diseases of different origin. […] In these experiments, the cells from eleven ALL patients were isolated and, after dilution with cell culture medium, treated for 36 h with 25 μM N69, 25 μM N76 or corresponding amounts of cytarabin (AraC), fludarabin or doxorubicin. […] After the treatment, the fragmentation of the DNA was measured by staining with propidium iodide followed by quantification by flow cytometry as described by Essmann et al. (2000). P values were calculated from a paired t test and are stated in FIG. 4 directly for the individual pairs to be compared. […]

[2] = system: cells from patients suffering from different leukemias; assay: DNA fragmentation apoptosis assay in cells from patients suffering from different leukemias; assay type: cell-based, human; settings: 25 μmol/l, 36 h
Protocol: The usefulness of substances according to the invention for the therapy of various malignant diseases of the hematopoetic system was tested on cells from patients suffering from different diseases. Thus, cells from patients suffering from different leukemias were isolated and, after dilution with cell culture medium, treated for 36 h with 25 μM N69. Controls contained corresponding amounts of the solubilizer ethanol. After the treatment, the fragmentation of the DNA was measured by staining with propidium iodide followed by quantification by flow cytometry as described by Essmann et al. (2000). The result can be seen in FIG. 3. The measured values are stated as % of apoptotic cells based on the total population and represent the mean value from duplicate experiments.

BIAB cells = assay: Combined proliferation and cell death assay (Neubauer cell counting, trypan blue staining); assay type: cell-based; settings: 25 μM, after 24 h
Protocol: To further characterize the role of the various components of the newly described substances, the iron-complexed compound N69 and the compound obtainable from N69 by cleaving the Fe(CO)3 group were prepared and employed in a combined proliferation and cell death assay. Thus, BIAB cells were treated for 24 h and 72 h. with different concentrations of N69 or the corresponding compound lacking the iron complex. Controls contained corresponding amounts of the solubilizer ethanol. After the treatment, the number of cells was counted in a Neubauer counting chamber, and the number of dead cells was counted by trypan blue staining as described by Wieder et al. (1995). […] FIG. 5B states the proportion of dead cells in %±SD (n=3) as determined at these times at the respective concentration. […] As can be easily seen, the complexed iron plays an important role in the cell-death inducing activity of the substances. The complexed iron shifts the dose-effect curve of the cell-death inducing effect of N69 towards lower concentrations.

BJAB cells [3] = assay: DNA fragmentation (propidium iodide staining, flow cytometry) apoptosis assay in BJAB cells; assay type: cell-based; settings: 20 μM
Protocol: The measurement of apoptosis is based on a method which detects the fragmentation of DNA on the level of individual cells, which is typical of apoptosis and distinguishes this form of cell death from necrosis. Thus, BJAB cells were treated with different concentrations of N76 or N69 for 24 h. Controls contained corresponding amounts of the solubilizer ethanol. After the treatment, the fragmentation of DNA was measured by staining with propidium iodide followed by quantification by flow cytometry as described by Essmann et al. (2000). The values are stated as % of apoptotic cells based on the total population±SD (n=3).
(§1) Further studies had the result that the BJAB cells are driven to the mitochondrial apoptosis signal pathway by JV-206-1. […] In addition, the fragmentation of the DNA was measured as a specific characteristic of apoptosis as described by Essmann et al. (2000). […] In these experiments, the proportion of apoptotic cells was between 20% and 48% of the total population, depending on the concentration and incubation time.

BJAB cells [4] = assay: Cell death of BJAB cells after incubation with JV-206-1 (FIG. 6A); assay type: cell-based; settings: incubation for 48 hours
Protocol: as §1

BJAB cells [5] = assay: Mitochondrial membrane potential (JC-1 staining) in BJAB cells; assay type: cell-based
Protocol: as §1

| Molecule | pro-apoptotic effect in vitro towards primary ALL cells compared to established cytostatic agents ([1]; cells from eleven ALL patients, versus doxorubicin, cytarabin and fludarabin-5′ dihydrogenphosphate, paired t test) | induction of apoptosis in vitro in therapy-resistant cells of patients ([1]; ALL lymphoblasts, in contrast to 9 μM epirubicin (positive control)) | induction of apoptotic cell death ([2]; cells from patients suffering from acute myeloblastic leukemia (AML)) | induction of apoptotic cell death ([2]; cells from patients suffering from chronic myeloblastic leukemia (CML)) | induction of apoptotic cell death ([2]; cells from patients with a first manifestation of ALL) | induction of apoptotic cell death ([2]; cells from patients with a recurrence of acute lymphoblastic leukemia (ALL-Rez)) | proportion of dead cells (trypan blue) (BIAB cells) | cell death by apoptosis (DNA fragmentation) (BJAB cells [3]) | induction of cell death (BJAB cells [4]) | fraction of cells having a reduced mitochondrial membrane potential (ΔΨm) (BJAB cells [5]) |
| --- | --- | --- | --- | --- | --- | --- | --- | --- | --- | --- |
| exo-[2′,2″,3′,3″-η-(3′-(3″-(E)-acrylic-acid-ethyl-ester-3″-yl)-2′,3′-didehydro-2′,3′-dideoxy-5′-O-(dimethylthexylsilyl)-β-D-cytidine)]tricarbonyliron [N69] | significantly better pro-apoptotic effect | induce apoptosis | induces apoptotic cell death | induces apoptotic cell death | induces apoptotic cell death | induces apoptotic cell death | about 90% | – | – | – |
| CCOC(=O)C=CC1=C[C@H](n2cc(Br)c(=O)[nH]c2=O)C[C@H]1CO[Si](C)(C)C(C)(C)C(C)C.O=[C]=[Fe](=[C]=O)=[C]=O (racemic) [JV-206-1, (3RS,5RS)-3-[3-(5-bromo-2,4-dioxo-3,4-dihydro-2H-pyrimidin-1-yl)-5-[dimethyl-(1,1,2-trimethylpropyl)silanyloxymethyl]-cyclopent-1-enyl]acrylic-acid-ethyl-estertricarbonyliron] | – | – | – | – | – | – | – | major part of the cells die | induces cell death | concentration-dependent increase |
